In paper PMC4965013, “Open Source Drug Discovery with the Malaria Box Compound Collection for Neglected Diseases and Beyond” (PLoS Pathogens, 2016):

Columns and labels:
[1] = test system: P. falciparum M1 aminopeptidase; parameters: method as in ref [23] (a number printed in a supplementary file, which may have a reference list of its own: not looked up in the article's list); settings: ref [23]; cited from earlier work
[2] = test system: P. falciparum M17 aminopeptidase; parameters: method as in ref [23] (a number printed in a supplementary file, which may have a reference list of its own: not looked up in the article's list); settings: ref [23]; cited from earlier work
[3] = test system: P. falciparum 3D7 trophozoites; assay: Metabolomic fingerprint profiling LC-MS; assay type: cell-based, Plasmodium falciparum; parameters: UDP-D-glucose / ADP-D-glucose: unit not given here
P. falciparum = assay: EC50 listed in S2 Table Metabolomics (used to set the concentration tested); assay type: cell-based; settings: Plasmodium falciparum; EC50 used for Factor_XEC50 in metabolomics; read-out: EC50_nM
Atg8-Atg3 = test system: Atg8-Atg3; parameters: method as in ref [38] (a number printed in a supplementary file, which may have a reference list of its own: not looked up in the article's list); settings: ref [38]; cited from earlier work
T. cruzi Tulahuen = settings: ref [84]; read-out: Trypanosoma cruzi Tulahuen intracellular amastigotes in MRC5 cell line EC50; cited from earlier work
[4] = metabolite level change after treatment

COc1cc(-c2nc(-c3ccccc3)c(-c3ccccc3)[nH]2)cc(OC)c1O [MMV020750]
inhibition of M1 in words [1]: moderate competitive inhibitors | inhibition of M17 in words [2]: moderate competitive inhibitors

Cc1ccc(Nc2nc(-c3ccccn3)cs2)cc1 [MMV007907]
Acetyllysine ([3]; S2 Table Metabolomics, metabolite Acetyllysine): -0.3916 | N-acetyl-L-ornithine ([3]; S2 Table Metabolomics, metabolite N-acetyl-L-ornithine): -0.2705 | N-carbamoyl-L-aspartate ([3]; S2 Table Metabolomics, metabolite N-carbamoyl-L-aspartate): 0.4477 | NADPH ([3]; S2 Table Metabolomics, metabolite NADPH): 1.503 | dAMP ([3]; S2 Table Metabolomics, metabolite dAMP): -0.05008 | dCMP ([3]; S2 Table Metabolomics, metabolite dCMP): -0.3338 | dTDP ([3]; S2 Table Metabolomics, metabolite dTDP): -0.4245 | dTMP ([3]; S2 Table Metabolomics, metabolite dTMP): -0.5337 | dTTP ([3]; S2 Table Metabolomics, metabolite dTTP): 0.04887 | dihydroorotate ([3]; S2 Table Metabolomics, metabolite dihydroorotate): 0.6541 | orotate ([3]; S2 Table Metabolomics, metabolite orotate): 0.3803 | DLH ([3]; S2 Table Metabolomics, peptide DLH): -0.1443 | DLS/SDL/SID ([3]; S2 Table Metabolomics, peptide DLS/SDL/SID): -0.03559 | PD ([3]; S2 Table Metabolomics, peptide PD): -0.7075 | PEE ([3]; S2 Table Metabolomics, peptide PEE): -0.4235 | PVNF ([3]; S2 Table Metabolomics, peptide PVNF): 0.2287 | 3-phosphoglycerate ([3]; metabolite 3-phosphoglycerate, S2 Table Metabolomics): 0.2283 | ADP-D-glucose ([3]; metabolite ADP-D-glucose, S2 Table Metabolomics): 0.03116 | ATP ([3]; metabolite ATP, S2 Table Metabolomics): 0.08371 | CDP ([3]; metabolite CDP, S2 Table Metabolomics, change in metabolite level after compound treatment): -0.4596 | D-sedoheptulose-1/7-phosphate ([3]; metabolite D-sedoheptulose-1/7-phosphate, S2 Table Metabolomics, change in metabolite level after compound treatment): -0.2275 | FAD ([3]; metabolite FAD, S2 Table Metabolomics): 0.1798 | GMP ([3]; metabolite GMP, S2 Table Metabolomics, change in metabolite level after compound treatment): 0.08425 | NAD+ ([3]; metabolite NAD+, S2 Table Metabolomics): 0.05427 | NADP+ ([3]; metabolite NADP+, S2 Table Metabolomics): -0.07684 | Octoluse Bisphosphate ([3]; metabolite Octoluse Bisphosphate, S2 Table Metabolomics, change in metabolite level after compound treatment): -0.09051 | Pyroglutamic acid ([3]; metabolite Pyroglutamic acid, S2 Table Metabolomics): 0.2079 | UDP-D-glucose ([3]; metabolite UDP-D-glucose, S2 Table Metabolomics): -0.006173 | UDP-D-glucuronate ([3]; metabolite UDP-D-glucuronate, S2 Table Metabolomics): 0.1137 | UDP-N-acetyl-glucosamine ([3]; metabolite UDP-N-acetyl-glucosamine, S2 Table Metabolomics): 0.001514 | UDP ([3]; metabolite UDP, S2 Table Metabolomics, change in metabolite level after compound treatment): -0.4364 | UMP ([3]; metabolite UMP, S2 Table Metabolomics, change in metabolite level after compound treatment): -0.7518 | UTP ([3]; metabolite UTP, S2 Table Metabolomics, change in metabolite level after compound treatment): 0.01959 | a-ketoglutarate ([3]; metabolite a-ketoglutarate, S2 Table Metabolomics): 0.135 | citrate/isocitrate ([3]; metabolite citrate/isocitrate, S2 Table Metabolomics, change in metabolite level after compound treatment): 0.264 | cytidine ([3]; metabolite cytidine, S2 Table Metabolomics): 0.5859 | dATP ([3]; metabolite dATP, S2 Table Metabolomics): -0.01819 | dGMP/AMP ([3]; metabolite dGMP/AMP, S2 Table Metabolomics, change in metabolite level after compound treatment): -0.2513 | fumarate ([3]; metabolite fumarate, S2 Table Metabolomics, change in metabolite level after compound treatment): -0.275 | glucose-1/6-phosphate ([3]; metabolite glucose-1/6-phosphate, S2 Table Metabolomics, change in metabolite level after compound treatment): -0.0724 | glycerate ([3]; metabolite glycerate, S2 Table Metabolomics, change in metabolite level after compound treatment): 0.1576 | guanine ([3]; metabolite guanine, S2 Table Metabolomics, change in metabolite level after compound treatment): 0.3676 | guanosine ([3]; metabolite guanosine, S2 Table Metabolomics, change in metabolite level after compound treatment): 0.05893 | hypoxanthine ([3]; metabolite hypoxanthine, S2 Table Metabolomics): 0.3977 | indole ([3]; metabolite indole, S2 Table Metabolomics): 0.3227 | inosine ([3]; metabolite inosine, S2 Table Metabolomics, change in metabolite level after compound treatment): 0.344 | 2_3-Diphosphoglyceric acid [3, 4]: -0.02223 | 4-phosphopantothenate [3, 4]: 0.1153 | 6-phospho-D-gluconate [3, 4]: 0.05128 | FMN [3, 4]: 0.1654 | IMP [3, 4]: -0.204 | Pyrophosphate [3, 4]: 0.1304 | Sedoheptoluse bisphosphate [3, 4]: -0.1099 | cyclic-AMP [3, 4]: 0.1921 | glutathione disulfide [3, 4]: -0.02789 | lactate [3, 4]: 0.5292 | myo-inositol [3, 4]: 0.004909 | nicotinate ([3]; metabolite nicotinate, S2 Table Metabolomics): 0.3366 | ornithine ([3]; metabolite ornithine, S2 Table Metabolomics): 0.4059 | phosphoenolpyruvate ([3]; metabolite phosphoenolpyruvate, S2 Table Metabolomics): 0.0562 | pyruvate ([3]; metabolite pyruvate, S2 Table Metabolomics, change in metabolite level after compound treatment): 0.2612 | ribose-phosphate ([3]; metabolite ribose-phosphate, S2 Table Metabolomics): -0.06101 | sarcosine/alanine ([3]; metabolite sarcosine/alanine, S2 Table Metabolomics, change in metabolite level after compound treatment): 0.3466 | sn-glycerol-3-phosphate ([3]; metabolite sn-glycerol-3-phosphate, S2 Table Metabolomics): 0.2394 | succinate/methylmalonic acid ([3]; metabolite succinate/methylmalonic acid, S2 Table Metabolomics, change in metabolite level after compound treatment): 0.03717 | uridine ([3]; metabolite uridine, S2 Table Metabolomics, change in metabolite level after compound treatment): 0.4023 | xanthosine ([3]; metabolite xanthosine, S2 Table Metabolomics, change in metabolite level after compound treatment): -0.2403 | EC50 (P. falciparum): 350 nM | PPI inhibitors of Atg8-Atg3 interaction (Atg8-Atg3): PPI inhibitors | EC50 (T. cruzi Tulahuen): 281 nM
